Experimental data reported in PMC5218480 (PLoS ONE, 2017).

Test system: MV-4-11 cells
Experiment: Gene expression microarray analysis (Affymetrix PrimeView) and GSEA
Type: cell-based, human
Set-up: RFU PODN (11730768_x_at) / Fold change /veh PODN (11730768_x_at) / RFU LINC00158 (11744669_a_at) / Fold change /veh LINC00158 (11744669_a_at) / RFU DUSP10 (11751237_a_at) / Fold change /veh DUSP10 (11751237_a_at) / RFU ID3 (11757404_x_at) / Fold change /veh ID3 (11757404_x_at) / RFU PLEKHG5 (11737974_s_at) / Fold change /veh PLEKHG5 (11737974_s_at) / RFU LRRC4B (11730491_at) / Fold change /veh LRRC4B (11730491_at) / RFU GIMAP4 (11747438_a_at) / Fold change /veh GIMAP4 (11747438_a_at) / RFU KRT8 (11758183_x_at) / Fold change /veh KRT8 (11758183_x_at) / RFU CNN1 (11734310_a_at) / Fold change /veh CNN1 (11734310_a_at) / RFU VPS37D (11726825_at) / Fold change /veh VPS37D (11726825_at) / RFU C10orf10 (11716522_x_at) / Fold change /veh C10orf10 (11716522_x_at) / RFU KIR2DL2 /// KIR2DL4 /// KIR2DL5A /// KIR2DL5B /// KIR2DS1 /// KIR2DS2 /// KIR2DS3 /// KIR2DS4 /// KIR3DL3 /// KIR3DL3 /// KIR3DS1 (11738374_at) / Fold change /veh KIR2DL2 /// KIR2DL4 /// KIR2DL5A /// KIR2DL5B /// KIR2DS1 /// KIR2DS2 /// KIR2DS3 /// KIR2DS4 /// KIR3DL3 /// KIR3DL3 /// KIR3DS1 (11738374_at) / RFU C1QL1 (11718748_at) / Fold change /veh C1QL1 (11718748_at) / RFU TMPRSS4 (11747572_a_at) / Fold change /veh TMPRSS4 (11747572_a_at) / RFU HAMP (11756126_x_at) / Fold change /veh HAMP (11756126_x_at) / RFU RNFT2 (11725882_a_at) / Fold change /veh RNFT2 (11725882_a_at) / RFU NR4A2 (11747474_a_at) / Fold change /veh NR4A2 (11747474_a_at) / RFU ABCC12 (11746883_a_at) / Fold change /veh ABCC12 (11746883_a_at) / RFU TMEM136 (11760407_x_at) / Fold change /veh TMEM136 (11760407_x_at) / RFU CLDN22 /// WWC2 (11732394_at) / Fold change /veh CLDN22 /// WWC2 (11732394_at) / RFU HLA-DPB1 (11760878_x_at) / Fold change /veh HLA-DPB1 (11760878_x_at) / RFU SPINT1 (11716480_a_at) / Fold change /veh SPINT1 (11716480_a_at) / RFU GAP43 (11754022_s_at) / Fold change /veh GAP43 (11754022_s_at) / RFU A4GNT (11735810_at) / Fold change /veh A4GNT (11735810_at) / RFU PRB3 (11715151_x_at) / Fold change /veh PRB3 (11715151_x_at) / RFU TUBB4B (11761932_at) / Fold change /veh TUBB4B (11761932_at) / RFU CAPN14 (11732068_a_at) / Fold change /veh CAPN14 (11732068_a_at) / RFU TMCC2 (11721928_a_at) / Fold change /veh TMCC2 (11721928_a_at) / RFU IRGQ (11745062_a_at) / Fold change /veh IRGQ (11745062_a_at) / RFU FAM174B (11720279_a_at) / Fold change /veh FAM174B (11720279_a_at) / RFU TMPRSS4 (11748680_a_at) / Fold change /veh TMPRSS4 (11748680_a_at) / RFU FAM212B (11763350_a_at) / Fold change /veh FAM212B (11763350_a_at) / RFU PLEKHG5 (11743358_a_at) / Fold change /veh PLEKHG5 (11743358_a_at) / RFU ZSCAN30 (11745921_a_at) / Fold change /veh ZSCAN30 (11745921_a_at) / RFU CMKLR1 (11741424_a_at) / Fold change /veh CMKLR1 (11741424_a_at) / RFU LOC101060620 /// MAPK8IP1 (11723275_at) / Fold change /veh LOC101060620 /// MAPK8IP1 (11723275_at) / RFU SPTSSB (11747773_x_at) / Fold change /veh SPTSSB (11747773_x_at) / RFU PRSS12 (11739890_at) / Fold change /veh PRSS12 (11739890_at) / RFU BIN1 (11741810_x_at) / Fold change /veh BIN1 (11741810_x_at) / RFU WNT11 (11732464_a_at) / Fold change /veh WNT11 (11732464_a_at) / RFU C10orf10 (11716521_a_at) / Fold change /veh C10orf10 (11716521_a_at) / RFU C5orf56 (11738089_at) / Fold change /veh C5orf56 (11738089_at) / RFU CYB561 (11721691_x_at) / Fold change /veh CYB561 (11721691_x_at) / RFU ANKRD19P (11752326_a_at) / Fold change /veh ANKRD19P (11752326_a_at) / RFU OR2T12 /// OR2T33 /// OR2T8 (11738714_s_at) / Fold change /veh OR2T12 /// OR2T33 /// OR2T8 (11738714_s_at) / RFU VCAN (11748164_a_at) / Fold change /veh VCAN (11748164_a_at) / RFU JSRP1 (11732532_at) / Fold change /veh JSRP1 (11732532_at) / RFU KRTAP10-11 (11738290_x_at) / Fold change /veh KRTAP10-11 (11738290_x_at) / RFU MYO3A (11730013_a_at) / Fold change /veh MYO3A (11730013_a_at) / RFU EBF3 (11725865_a_at) / Fold change /veh EBF3 (11725865_a_at) / RFU CAMK2N1 (11719241_x_at) / Fold change /veh CAMK2N1 (11719241_x_at) / RFU C5orf56 (11738088_a_at) / Fold change /veh C5orf56 (11738088_a_at) / RFU OLFML3 (11715873_a_at) / Fold change /veh OLFML3 (11715873_a_at) / RFU LOC100653217 /// NTM (11731650_a_at) / Fold change /veh LOC100653217 /// NTM (11731650_a_at) / RFU MAPK11 (11762145_a_at) / Fold change /veh MAPK11 (11762145_a_at) / RFU FIZ1 (11724087_x_at) / Fold change /veh FIZ1 (11724087_x_at) / RFU OASL (11726364_x_at) / Fold change /veh OASL (11726364_x_at) / RFU SOX15 (11748057_x_at) / Fold change /veh SOX15 (11748057_x_at) / RFU CD79A (11719716_a_at) / Fold change /veh CD79A (11719716_a_at) / RFU HIST1H1D (11736915_at) / Fold change /veh HIST1H1D (11736915_at) / RFU CASKIN2 (11723855_a_at) / Fold change /veh CASKIN2 (11723855_a_at) / RFU LOC730098 (11760151_x_at) / Fold change /veh LOC730098 (11760151_x_at) / RFU OR4N2 (11742367_at) / Fold change /veh OR4N2 (11742367_at) / RFU PRRT2 (11749266_a_at) / Fold change /veh PRRT2 (11749266_a_at) / RFU SNX32 (11753110_a_at) / Fold change /veh SNX32 (11753110_a_at) / RFU CDHR5 (11726645_a_at) / Fold change /veh CDHR5 (11726645_a_at) / RFU RCAN1 (11760418_a_at) / Fold change /veh RCAN1 (11760418_a_at) / RFU FAM167A (11723789_a_at) / Fold change /veh FAM167A (11723789_a_at) / RFU FAM26E (11764081_at) / Fold change /veh FAM26E (11764081_at) / RFU ISYNA1 (11749810_s_at) / Fold change /veh ISYNA1 (11749810_s_at) / RFU ACY1 (11761880_at) / Fold change /veh ACY1 (11761880_at) / RFU 11764098_at / Fold change /veh 11764098_at / RFU SAMD14 (11745864_x_at) / Fold change /veh SAMD14 (11745864_x_at) / RFU NPB (11741838_a_at) / Fold change /veh NPB (11741838_a_at) / RFU TMPRSS6 (11731388_a_at) / Fold change /veh TMPRSS6 (11731388_a_at) / RFU KRTAP10-2 (11738614_at) / Fold change /veh KRTAP10-2 (11738614_at) / RFU ARHGAP8 /// PRR5-ARHGAP8 (11727945_x_at) / Fold change /veh ARHGAP8 /// PRR5-ARHGAP8 (11727945_x_at) / RFU KRTAP5-7 /// NADSYN1 (11734609_at) / Fold change /veh KRTAP5-7 /// NADSYN1 (11734609_at) / RFU RASL12 (11751679_a_at) / Fold change /veh RASL12 (11751679_a_at) / RFU CDKN2B (11736163_a_at) / Fold change /veh CDKN2B (11736163_a_at) / RFU PRF1 (11729649_at) / Fold change /veh PRF1 (11729649_at) / RFU, ZNF638 /// ZNF638-IT1 / Fold change vs veh, ZNF638 /// ZNF638-IT1 / RFU, PANK3 / Fold change vs veh, PANK3 / RFU, SH3YL1 / Fold change vs veh, SH3YL1 / RFU, ZEB2 / Fold change vs veh, ZEB2 / RFU, NRIP1 / Fold change vs veh, NRIP1 / RFU, PTTG1IP / Fold change vs veh, PTTG1IP / RFU, CAPN2 / Fold change vs veh, CAPN2 / RFU, MED14 / Fold change vs veh, MED14 / RFU, SNORA58 / Fold change vs veh, SNORA58 / RFU, C1orf63 / Fold change vs veh, C1orf63 / RFU, LRRFIP1 / Fold change vs veh, LRRFIP1 / RFU, NDUFAF7 / Fold change vs veh, NDUFAF7 / RFU, SLC12A2 / Fold change vs veh, SLC12A2 / RFU, IBTK / Fold change vs veh, IBTK / RFU, ESF1 / Fold change vs veh, ESF1 / Fold change vs veh, TMEM50B / RFU, TAOK1 / Fold change vs veh, TAOK1 / RFU, ACBD3 / Fold change vs veh, ACBD3 / RFU, TMA16 / Fold change vs veh, TMA16 / RFU, RWDD3 / Fold change vs veh, RWDD3 / RFU, BCAT1 / Fold change vs veh, BCAT1 / RFU, EDEM3 / Fold change vs veh, EDEM3 / RFU, TMEM33 / Fold change vs veh, TMEM33 / RFU, WDR75 / Fold change vs veh, WDR75 / RFU, AHCTF1 / Fold change vs veh, AHCTF1 / RFU, TFRC / Fold change vs veh, TFRC / RFU, ZDHHC17 / Fold change vs veh, ZDHHC17 / RFU, NOM1 / Fold change vs veh, NOM1 / RFU, ARL8B / Fold change vs veh, ARL8B / RFU, ZBTB11 / Fold change vs veh, ZBTB11 / RFU, TAMM41 / Fold change vs veh, TAMM41 / RFU, KIAA1704 /// LOC100996395 / Fold change vs veh, KIAA1704 /// LOC100996395 / RFU, ING1 / Fold change vs veh, ING1 / RFU, TRMT61B / Fold change vs veh, TRMT61B / RFU, FUBP3 / Fold change vs veh, FUBP3 / RFU, TP53 / Fold change vs veh, TP53 / RFU, TNKS2 / Fold change vs veh, TNKS2 / RFU, ZFP14 / Fold change vs veh, ZFP14 / RFU, ACTR2 / Fold change vs veh, ACTR2 / RFU, PPP3R1 / Fold change vs veh, PPP3R1 / RFU, PIK3R1 / Fold change vs veh, PIK3R1 / RFU, HNRNPA1 / Fold change vs veh, HNRNPA1 / RFU, RNF170 / Fold change vs veh, RNF170 / RFU, ZNF28 / Fold change vs veh, ZNF28 / RFU, RNGTT / Fold change vs veh, RNGTT / RFU, OGT / Fold change vs veh, OGT / RFU, BRD1 / Fold change vs veh, BRD1 / RFU, MARS / Fold change vs veh, MARS / RFU, ZNF655 / Fold change vs veh, ZNF655 / RFU, FAHD1 / Fold change vs veh, FAHD1 / RFU, BDP1 / Fold change vs veh, BDP1 / RFU, LRRCC1 / Fold change vs veh, LRRCC1 / RFU, ARID1A / Fold change vs veh, ARID1A / RFU, ZNF146 / Fold change vs veh, ZNF146 / RFU, ZNF330 / Fold change vs veh, ZNF330 / RFU, GPN3 / Fold change vs veh, GPN3 / RFU, C9orf123 / Fold change vs veh, C9orf123 / RFU, N4BP2L2 / Fold change vs veh, N4BP2L2 / RFU, ARFIP1 / Fold change vs veh, ARFIP1 / RFU, FAM179B / Fold change vs veh, FAM179B / RFU, BCL10 / Fold change vs veh, BCL10 / RFU, UHRF1BP1L / Fold change vs veh, UHRF1BP1L / RFU, BET1 / Fold change vs veh, BET1 / RFU, CNOT2 / Fold change vs veh, CNOT2 / RFU, ZNF268 / Fold change vs veh, ZNF268 / Fold change vs veh, ZNF507 / RFU, DGCR2 / Fold change vs veh, DGCR2 / RFU, WDSUB1 / Fold change vs veh, WDSUB1 / Fold change vs veh, HSP90B1 /// MIR3652 / RFU, ADSS / Fold change vs veh, ADSS / RFU, GK / Fold change vs veh, GK / RFU, ZNF148 / Fold change vs veh, ZNF148 / RFU, TAF9 / Fold change vs veh, TAF9 / RFU, SLC1A5 / Fold change vs veh, SLC1A5 / RFU, SLMO2 / Fold change vs veh, SLMO2 / RFU, ABCC4 / Fold change vs veh, ABCC4 / RFU, LOC101060439 /// RAP1B / Fold change vs veh, LOC101060439 /// RAP1B / RFU, RFX7 / Fold change vs veh, RFX7 / RFU, GTPBP10 / Fold change vs veh, GTPBP10 / RFU, CNEP1R1 / Fold change vs veh, CNEP1R1 / RFU, BIVM-ERCC5 /// ERCC5 / Fold change vs veh, BIVM-ERCC5 /// ERCC5 / RFU, ILF3 / Fold change vs veh, ILF3 / RFU 11762660_at / Fold change /veh 11762660_at / RFU VCAN (11757783_s_at) / Fold change /veh VCAN (11757783_s_at) / RFU DDX43 (11728927_at) / Fold change /veh DDX43 (11728927_at) / RFU KRT8 (11758188_x_at) / Fold change /veh KRT8 (11758188_x_at) / RFU NKD1 (11759106_at) / Fold change /veh NKD1 (11759106_at) / RFU SRD5A1 (11742802_a_at) / Fold change /veh SRD5A1 (11742802_a_at) / RFU TPSAB1 /// TPSB2 (11721975_s_at) / Fold change /veh TPSAB1 /// TPSB2 (11721975_s_at) / RFU GSTM3 (11746129_a_at) / Fold change /veh GSTM3 (11746129_a_at) / RFU IL23R (11737362_x_at) / Fold change /veh IL23R (11737362_x_at) / RFU TMEM51 (11727254_a_at) / Fold change /veh TMEM51 (11727254_a_at) / RFU PIWIL2 (11732686_x_at) / Fold change /veh PIWIL2 (11732686_x_at) / RFU ORM1 (11744905_x_at) / Fold change /veh ORM1 (11744905_x_at) / RFU CCDC152 (11743942_at) / Fold change /veh CCDC152 (11743942_at) / RFU ECM1 (11717891_a_at) / Fold change /veh ECM1 (11717891_a_at) / RFU IL23R (11748794_a_at) / Fold change /veh IL23R (11748794_a_at) / RFU TNFAIP8L3 (11732012_x_at) / Fold change /veh TNFAIP8L3 (11732012_x_at) / RFU MBOAT4 (11741988_at) / Fold change /veh MBOAT4 (11741988_at) / RFU 11764193_at / Fold change /veh 11764193_at / RFU TMEM53 (11763286_at) / Fold change /veh TMEM53 (11763286_at) / RFU MAGEB2 (11727129_at) / Fold change /veh MAGEB2 (11727129_at) / RFU TMEM200A (11744735_a_at) / Fold change /veh TMEM200A (11744735_a_at) / RFU CCDC152 (11751479_a_at) / Fold change /veh CCDC152 (11751479_a_at) / RFU FAM211A (11726209_a_at) / Fold change /veh FAM211A (11726209_a_at) / RFU RGS16 (11746705_a_at) / Fold change /veh RGS16 (11746705_a_at) / RFU VCAN (11755009_s_at) / Fold change /veh VCAN (11755009_s_at) / RFU RHOB (11743442_s_at) / Fold change /veh RHOB (11743442_s_at) / RFU RGS16 (11720943_a_at) / Fold change /veh RGS16 (11720943_a_at) / RFU RGS16 (11720944_at) / Fold change /veh RGS16 (11720944_at) / RFU, VPS4B / Fold change vs veh, VPS4B / RFU, CREB1 / Fold change vs veh, CREB1 / RFU, DNAJC13 / Fold change vs veh, DNAJC13 / RFU, GNAQ / Fold change vs veh, GNAQ / RFU, CDK5R1 / Fold change vs veh, CDK5R1 / RFU, ZRANB3 / Fold change vs veh, ZRANB3 / RFU, CUL4A / Fold change vs veh, CUL4A / RFU, CCNY / Fold change vs veh, CCNY / RFU, UFL1 / Fold change vs veh, UFL1 / RFU, COG3 / Fold change vs veh, COG3 / RFU, DIAPH2 / Fold change vs veh, DIAPH2 / RFU, SKA2 / Fold change vs veh, SKA2 / RFU, AFF3 / Fold change vs veh, AFF3 / RFU, LMF1 / Fold change vs veh, LMF1 / RFU, IPO11 / Fold change vs veh, IPO11 / RFU, DFFB / Fold change vs veh, DFFB / RFU, FOXP1 / Fold change vs veh, FOXP1 / RFU, CARD8 / Fold change vs veh, CARD8 / RFU, STRN3 / Fold change vs veh, STRN3 / RFU, ADK / Fold change vs veh, ADK / RFU, RASSF2 / Fold change vs veh, RASSF2 / RFU, WIPF1 / Fold change vs veh, WIPF1 / RFU, LARP1B / Fold change vs veh, LARP1B / RFU, RASA1 / Fold change vs veh, RASA1 / RFU, RB1 / Fold change vs veh, RB1 / RFU, PPFIA1 / Fold change vs veh, PPFIA1 / RFU, MAT2A / Fold change vs veh, MAT2A / RFU, CCT5 / Fold change vs veh, CCT5 / RFU, WDR92 / Fold change vs veh, WDR92 / RFU, CUX1 / Fold change vs veh, CUX1 / RFU, TTC7A / Fold change vs veh, TTC7A / RFU, TMEM135 / Fold change vs veh, TMEM135 / RFU, DEPTOR / Fold change vs veh, DEPTOR / RFU, CPM / Fold change vs veh, CPM / RFU, DNAJB6 / Fold change vs veh, DNAJB6 / RFU, CACNA2D3 / Fold change vs veh, CACNA2D3 / RFU, DTX4 / Fold change vs veh, DTX4 / RFU, TFCP2 / Fold change vs veh, TFCP2 / RFU, GMCL1 /// GMCL1P1 / Fold change vs veh, GMCL1 /// GMCL1P1 / RFU, AEBP2 / Fold change vs veh, AEBP2 / RFU, SNHG1 /// SNORD22 /// SNORD25 /// SNORD26 /// SNORD27 /// SNORD28 /// SNORD29 /// SNORD31 / Fold change vs veh, SNHG1 /// SNORD22 /// SNORD25 /// SNORD26 /// SNORD27 /// SNORD28 /// SNORD29 /// SNORD31 / Fold change (Aza/veh), C12orf56 (ProbeSet 11735607_a_at) / Fold change (ACY-1035/veh), C12orf56 (ProbeSet 11735607_a_at) / Fold change (Aza/veh), FGFR1OP (ProbeSet 11751329_s_at) / Fold change (ACY-1035/veh), FGFR1OP (ProbeSet 11751329_s_at) / Fold change (Aza/veh), VPS36 (ProbeSet 11739960_a_at) / Fold change (ACY-1035/veh), VPS36 (ProbeSet 11739960_a_at) / RFU SYPL1 (11715823_x_at) / Fold change /veh SYPL1 (11715823_x_at) / RFU IGFBP7 (11715501_s_at) / Fold change /veh IGFBP7 (11715501_s_at) / RFU REEP3 (11722064_at) / Fold change /veh REEP3 (11722064_at) / RFU IGLL1 (11728026_x_at) / Fold change /veh IGLL1 (11728026_x_at): dose or concentration left out as unconfirmed
Conditions: ProbeSet 11752001_a_at; LIST D

Compound: Nc1ccc(-c2cccs2)cc1NC(=O)c1ccc2c(c1)cc(C1CC1)n2CCN1CCOCC1 [ACY-1035]
- Fold change vs veh, CUL4A: 0.87
